Data as given in PMC4020173 (Bioorganic & medicinal chemistry, 2014).
“Also recorded” adds a separate entry of the source.

Assays:
[1] = tested on: MDA-MB-231 tumors; experiment: MicroPET imaging with [^18F]12 in MDA-MB-231 tumor-bearing mice; assay type: in vivo; settings: MDA-MB-231 tumor in mice; olaparib i.p. 50 mg/kg 20 min pretreatment; time-radioactivity curves
[2] = tested on: MDA-MB-436 human breast cancer xenograft tumors; experiment: MicroPET imaging with [^18F]12 in MDA-MB-436 tumor-bearing mice; assay type: in vivo; settings: MDA-MB-436 tumors in mice; olaparib 50 mg/kg i.p. or 12 1 mg/kg i.p., 20 min prior to tracer injection

Compound	Effect of pretreatment on [^18F]12 uptake in tumor (blocking) [1]	Effect of pretreatment on [^18F]12 uptake in tumor (blocking) [2]
O=C(c1cc(Cc2n[nH]c(=O)c3ccccc23)ccc1F)N1CCN(C(=O)C2CC2)CC1 [olaparib]	decreased [^18F]12 uptake	blocked; also recorded: decreased [^18F]12 uptake in the tumors to the background tissue activity levels
O=C1NCCn2c(-c3ccc(OCCF)cc3)nc3cccc1c32 [Compound 12, 5,6-Dihydro-2-(4-(2-fluoroethoxy)phenyl)-imidazo[4,5,1-jk][1,4]benzodiazepin-7(4H)-ones]	–	decreased [^18F]12 uptake in the tumors to the background tissue activity levels; also recorded: blocked
